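All cell lines were grown in 96-well plates and treated with compound for 48 hours. TGI: total growth inhibition.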
What follows are compounds tested on NCI-H226 lung (assay: NCI tumour cell line growth inhibition, 48 h).
Work on `COC(=O)C1C(=O)O[C@@H](c2ccc3c(c2)OCO3)C1C(=O)OC` (mixture of isomers) yielded a TGI of over 100 µM.
For `OCc1cc2c(cn1)[nH]c1ccc(NCc3ccccc3)cc12`, the TGI was 54.4 µM.

Each compound was assayed on NCI-H23 lung (assay: NCI tumour cell line growth inhibition, 48 h).
In the case of `COC(=O)C1C(=O)O[C@@H](c2ccc3c(c2)OCO3)C1C(=O)OC` (mixture of isomers), the TGI is reported as over 100 µM.
Compound `OCc1cc2c(cn1)[nH]c1ccc(NCc3ccccc3)cc12` has a TGI of over 100 µM.
Work on `O=[N+]([O-])c1ccccc1C1SCc2nc3ccccc3n21` (configuration not stated) yielded a TGI of over 100 µM.

These compounds were tested on NCI-H460 lung (assay: NCI tumour cell line growth inhibition, 48 h).
In the case of `O=c1cc(O)cc2n1CCC2`, the TGI is reported as over 100 µM.
`COC(=O)C1C(=O)O[C@@H](c2ccc3c(c2)OCO3)C1C(=O)OC` (mixture of isomers) gave a TGI of over 100 µM.
For `OCc1cc2c(cn1)[nH]c1ccc(NCc3ccccc3)cc12`, the TGI was 80.2 µM.
`O=[N+]([O-])c1ccccc1C1SCc2nc3ccccc3n21` (configuration not stated) showed a TGI of over 100 µM.

These compounds were tested on NCI-H522 lung (assay: NCI tumour cell line growth inhibition, 48 h).
For `O=c1cc(O)cc2n1CCC2`, the TGI was over 100 µM.
In the case of `COC(=O)C1C(=O)O[C@@H](c2ccc3c(c2)OCO3)C1C(=O)OC` (mixture of isomers), the TGI is reported as over 100 µM.
`OCc1cc2c(cn1)[nH]c1ccc(NCc3ccccc3)cc12` gave a TGI of 52 µM.
For `O=[N+]([O-])c1ccccc1C1SCc2nc3ccccc3n21` (configuration not stated), the TGI was over 100 µM.

What follows are compounds tested on OVCAR-3 ovarian (assay: NCI tumour cell line growth inhibition, 48 h).
`O=c1cc(O)cc2n1CCC2` showed a TGI of over 100 µM.
`COC(=O)C1C(=O)O[C@@H](c2ccc3c(c2)OCO3)C1C(=O)OC` (mixture of isomers) was tested, and the TGI was over 100 µM.
For `OCc1cc2c(cn1)[nH]c1ccc(NCc3ccccc3)cc12`, the TGI was 69.6 µM.

The compounds below were run on OVCAR-4 ovarian (assay: NCI tumour cell line growth inhibition, 48 h).
`COC(=O)C1C(=O)O[C@@H](c2ccc3c(c2)OCO3)C1C(=O)OC` (mixture of isomers) showed a TGI of over 100 µM.
With `OCc1cc2c(cn1)[nH]c1ccc(NCc3ccccc3)cc12` the TGI was over 100 µM.
`O=[N+]([O-])c1ccccc1C1SCc2nc3ccccc3n21` (configuration not stated) showed a TGI of over 100 µM.

What follows are compounds tested on OVCAR-5 ovarian (assay: NCI tumour cell line growth inhibition, 48 h).
For `O=c1cc(O)cc2n1CCC2`, the TGI was over 100 µM.
`COC(=O)C1C(=O)O[C@@H](c2ccc3c(c2)OCO3)C1C(=O)OC` (mixture of isomers) was tested, and the TGI was over 100 µM.
`OCc1cc2c(cn1)[nH]c1ccc(NCc3ccccc3)cc12` gave a TGI of over 100 µM.

These compounds were tested on OVCAR-8 ovarian (assay: NCI tumour cell line growth inhibition, 48 h).
`O=c1cc(O)cc2n1CCC2` gave a TGI of over 100 µM.
Work on `COC(=O)C1C(=O)O[C@@H](c2ccc3c(c2)OCO3)C1C(=O)OC` (mixture of isomers) yielded a TGI of over 100 µM.
For `OCc1cc2c(cn1)[nH]c1ccc(NCc3ccccc3)cc12`, the TGI was over 100 µM.
Compound `O=[N+]([O-])c1ccccc1C1SCc2nc3ccccc3n21` (configuration not stated) has a TGI of over 100 µM.

What follows are compounds tested on RPMI-8226 leukemia (assay: NCI tumour cell line growth inhibition, 48 h).
`O=c1cc(O)cc2n1CCC2` showed a TGI of over 100 µM.
With `COC(=O)C1C(=O)O[C@@H](c2ccc3c(c2)OCO3)C1C(=O)OC` (mixture of isomers) the TGI was over 100 µM.
`OCc1cc2c(cn1)[nH]c1ccc(NCc3ccccc3)cc12` showed a TGI of 35.8 µM.

The compounds below were run on RXF 393 renal (assay: NCI tumour cell line growth inhibition, 48 h).
With `O=c1cc(O)cc2n1CCC2` the TGI was over 100 µM.
In the case of `COC(=O)C1C(=O)O[C@@H](c2ccc3c(c2)OCO3)C1C(=O)OC` (mixture of isomers), the TGI is reported as over 100 µM.
Compound `OCc1cc2c(cn1)[nH]c1ccc(NCc3ccccc3)cc12` has a TGI of 78.5 µM.
For `O=[N+]([O-])c1ccccc1C1SCc2nc3ccccc3n21` (configuration not stated), the TGI was over 100 µM.

Each compound was assayed on RXF-631 renal (assay: NCI tumour cell line growth inhibition, 48 h).
`O=c1cc(O)cc2n1CCC2` gave a TGI of over 100 µM.
`COC(=O)C1C(=O)O[C@@H](c2ccc3c(c2)OCO3)C1C(=O)OC` (mixture of isomers) was tested, and the TGI was over 100 µM.
`OCc1cc2c(cn1)[nH]c1ccc(NCc3ccccc3)cc12` was tested, and the TGI was over 100 µM.
`O=[N+]([O-])c1ccccc1C1SCc2nc3ccccc3n21` (configuration not stated) was tested, and the TGI was over 100 µM.

Each compound was assayed on SF-268 CNS (assay: NCI tumour cell line growth inhibition, 48 h).
In the case of `O=c1cc(O)cc2n1CCC2`, the TGI is reported as over 100 µM.
Work on `COC(=O)C1C(=O)O[C@@H](c2ccc3c(c2)OCO3)C1C(=O)OC` (mixture of isomers) yielded a TGI of over 100 µM.
`OCc1cc2c(cn1)[nH]c1ccc(NCc3ccccc3)cc12` was tested, and the TGI was 70.9 µM.
Work on `O=[N+]([O-])c1ccccc1C1SCc2nc3ccccc3n21` (configuration not stated) yielded a TGI of over 100 µM.

What follows are compounds tested on SF-295 CNS (assay: NCI tumour cell line growth inhibition, 48 h).
With `O=c1cc(O)cc2n1CCC2` the TGI was over 100 µM.
`COC(=O)C1C(=O)O[C@@H](c2ccc3c(c2)OCO3)C1C(=O)OC` (mixture of isomers) gave a TGI of over 100 µM.
`OCc1cc2c(cn1)[nH]c1ccc(NCc3ccccc3)cc12` gave a TGI of 59.9 µM.
Work on `O=[N+]([O-])c1ccccc1C1SCc2nc3ccccc3n21` (configuration not stated) yielded a TGI of over 100 µM.

These compounds were tested on SF-539 CNS (assay: NCI tumour cell line growth inhibition, 48 h).
In the case of `O=c1cc(O)cc2n1CCC2`, the TGI is reported as over 100 µM.
For `COC(=O)C1C(=O)O[C@@H](c2ccc3c(c2)OCO3)C1C(=O)OC` (mixture of isomers), the TGI was over 100 µM.
`OCc1cc2c(cn1)[nH]c1ccc(NCc3ccccc3)cc12` was tested, and the TGI was over 100 µM.
With `O=[N+]([O-])c1ccccc1C1SCc2nc3ccccc3n21` (configuration not stated) the TGI was over 100 µM.

Each compound was assayed on SK-MEL-2 melanoma (assay: NCI tumour cell line growth inhibition, 48 h).
With `O=c1cc(O)cc2n1CCC2` the TGI was over 100 µM.
`OCc1cc2c(cn1)[nH]c1ccc(NCc3ccccc3)cc12` gave a TGI of over 100 µM.
`O=[N+]([O-])c1ccccc1C1SCc2nc3ccccc3n21` (configuration not stated) gave a TGI of over 100 µM.

— PubChem BioAssay (NCI)
